Measurements taken from patent publication US20140343085A1, “USE OF ARYL DERIVATIVES FOR CONTROLLING ECTOPARASITES” (Novartis AG, priority 2011, published 2014).

Tests used:
[1] = Blood concentration of active enantiomer in cats, fed vs fasted (HPLC-MSMS, enantioselective column); format: in vivo; settings: 45 mg, fasted Group 2
Experimental: (§1) Analysis of the blood concentration was performed as follows. A blood sample from the animal was subjected to a precipitation step with organic solvent and subsequently cleaned up on a […] solid phase extraction cartridge. The eluate was evaporated to dryness and reconstituted in mobile phase and analyzed on a HPLC-MSMS using an enantioselective column (amylose-based, brand name “Chiralpak”).
To 4 cats, each 45 mg of the racemic compound 5-[5-(3,4,5-trichloro-phenyl)-5-trifluoromethyl-4,5-dihydro-isoxazol-3-yl]-3-methyl-thiophene-2-carboxylic acid [(2,2,2-trifluoro-ethylcarbamoyl)-methyl]-amide were administered in form of an oral solution, and the blood concentration of said aryl isoxazoline compound within the cats was then monitored according to the method as described in Example 1 up to 24 days following the administration.
2 cats (Group 1) received a full daily ration of commercial wet food 15 to 30 minutes before the administration of the aryl isoxazoline compound; The two Group 2 cats received an identical ration of wet food only 5 hours following the uptake of the aryl isoxazoline.

[2] = Blood concentration of active enantiomer in dogs, fed vs fasted (HPLC-MSMS, enantioselective column); format: in vivo; settings: 50 mg/kg
Experimental: To 12 dogs of mixed breed, the racemic compound 5-[5-(3,4,5-trichloro-phenyl)-5-trifluoromethyl-4,5-dihydro-isoxazol-3-yl]-3-methyl-thiophene-2-carboxylic acid [(2,2,2-trifluoro-ethylcarbamoyl)-methyl]-amide was administered in form of a solution at a dose of 50 mg/kg of animal, and the blood concentration of said aryl isoxazoline compound within the dogs was then monitored up to 6 days following the administration.
4 dogs (Group 1) received a full daily ration of pelleted dry food 15 to 30 minutes before the administration of the aryl isoxazoline compound; The Group 2 dogs received an identical ration of pelleted dry feed 30 minutes after the administration of the active ingredient. To the remaining 4 dogs of Group 3, the aryl isoxazoline compound was administered in fasted condition, and they received the identical ration of pelleted dry food only 5 hours following the uptake of the antiparasiticide.
as §1

Cc1cc(C2=NOC(c3cc(Cl)c(Cl)c(Cl)c3)(C(F)(F)F)C2)sc1C(=O)NCC(=O)NCC(F)(F)F (racemic) [5-[5-(3,4,5-trichloro-phenyl)-5-trifluoromethyl-4,5-dihydro-isoxazol-3-yl]-3-methyl-thiophene-2-carboxylic acid [(2,2,2-trifluoro-ethylcarbamoyl)-methyl]-amide]
Level of active ingredient, sufficiency for ectoparasite control [1]: never reached a level of active ingredient sufficient to provide an effective ectoparasite control
Blood concentration of active ingredient, comparison of groups ([2]; Group 1 (fed 15 to 30 minutes before administration)): highest blood concentration of active ingredient
Blood concentration of active ingredient, sufficiency for ectoparasite control ([2]; Group 2 (fed 30 minutes after administration)): allowed effective ectoparasite control as well
Blood concentration of the active enantiomer, sufficiency for ectoparasite control ([2]; Group 3 (fasted, fed 5 hours after)): never reached a level being sufficient for an effective ectoparasite control
